Laboratory results as given in the METLIN SMRT retention time set (Domingo-Almenara et al. 2019).

Experiment: gradient 5% acetonitrile 3 min, to 50% in 2 min, to 85% in 15 min, held 3 min, 100 µL/min
Conditions: column: Zorbax Extend-C18 2.1 x 50 mm; eluents: water / acetonitrile, 0.1% formic acid
How it was run: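 Pure standards were analyzed in mixtures of ~100 molecules using HPLC coupled to a quadrupole time-of-flight mass spectrometer, in both positive and negative ionization mode. Separation used a Zorbax Extend-C18 column (2.1 × 50 mm, 1.8 μm) at 100 μL/min, with water and acetonitrile each containing 0.1% formic acid. Dead and dwell volumes were 40 μL and 900 μL, and data were collected over 3 months. Retention time was read from computationally picked adduct peaks, each inspected manually.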
In the case of `CNC(=O)c1cnn(-c2cccc(C)c2)c1-n1cccc1`, the RP-LC retention time is reported as 804 s.
`O=c1n(CC2CC2)nc2n1CCC(NS(=O)(=O)c1ccccc1)CC2` (stereo not drawn) showed an RP-LC retention time of 706 s.
Work on `CC1CCCN(c2ccn3c(=O)n(CC(=O)Nc4cccc(Cl)c4)nc3n2)C1` (stereo not drawn) yielded an RP-LC retention time of 835 s.
In the case of `Cc1cccc(C(=O)NC(C)C(=O)Nc2nc3ccccc3[nH]2)c1` (stereo not drawn), the RP-LC retention time is reported as 648 s.
`Cn1c(=O)n(C)c2cc(CNc3cc(C(=O)O)ccc3Cl)ccc21` gave an RP-LC retention time of 738 s.
In the case of `CCCn1ncc(N2CCC(C(=O)NCCCN3CCCC3=O)CC2)cc1=O`, the RP-LC retention time is reported as 594 s.
`CCc1cc(=O)n(CC(=O)Nc2ccc(C)cc2)c(N2CCOCC2)n1` gave an RP-LC retention time of 612 s.
With `Cc1oc(C2CCN(S(=O)(=O)Cc3ccccc3)CC2)nc1C(=O)N1CCCC1` the RP-LC retention time was 861 s.
For `COc1ccc(-c2cn3c(CC(=O)Nc4ccc(C(F)(F)F)cc4)csc3n2)cc1OC`, the RP-LC retention time was 846 s.
`Cn1c(CCNC(=O)c2cn3ccccc3n2)nc2ccccc21` showed an RP-LC retention time of 556 s.
Molecule `CCSc1nnc(-c2nn(C)c3c2CN(S(=O)(=O)c2cccc(F)c2)CC3)n1CC` has an RP-LC retention time of 922 s.
`COc1cc(C(=O)N2CCC3(CC2)NC(=O)c2ccccc2N3C)cc(OC)c1OC` showed an RP-LC retention time of 669 s.
For `CCCn1nc(CNC(=O)c2ccsc2)c2ccccc21`, the RP-LC retention time was 825 s.
Work on `COc1ccc2[nH]cc(CCN3CC(C(=O)Nc4nnc(C(F)(F)F)s4)CC3=O)c2c1` (stereo not drawn) yielded an RP-LC retention time of 780 s.
`COc1ccc(N2CCN(S(=O)(=O)c3cc(-c4cc(C(F)(F)F)on4)cs3)CC2)cc1` showed an RP-LC retention time of 1190 s.
`O=C(CN1C(=O)CCC1=O)N(Cc1ccsc1)Cc1ccco1` showed an RP-LC retention time of 710 s.
With `CCC(C)NC(=O)C1CCN(S(=O)(=O)c2ccc3c(c2)sc(=O)n3C)CC1` (stereo not drawn) the RP-LC retention time was 757 s.
`Cc1oc2ccn(Cc3cccc(F)c3)c(=O)c2c1C(=O)NCc1ccc(F)cc1F` showed an RP-LC retention time of 954 s.
Work on `CS(=O)(=O)Nc1cccc(NC(=O)CCc2c[nH]c3ccccc23)c1` yielded an RP-LC retention time of 714 s.
`CS(=O)(=O)N1CCCN(C(=O)c2ccccc2F)CC1` gave an RP-LC retention time of 651 s.
In the case of `Cc1cccc(CN2CC(=O)N(c3ccccc3)[C@@H]3CS(=O)(=O)C[C@@H]32)c1`, the RP-LC retention time is reported as 800 s.
`COC(=O)c1c(C)[nH]c(C(=O)N2CCC(CC(=O)NCCN3CCCCC3C)CC2)c1C` (stereo not drawn) showed an RP-LC retention time of 592 s.
`Cc1cc(C)cc(C(=O)N2CCCC(C(=O)NCc3ccco3)C2)c1` (stereo not drawn) showed an RP-LC retention time of 798 s.
With `Cn1c(=O)c2cc(C(=O)NCc3cccnc3)nn2c2ccccc21` the RP-LC retention time was 599 s.
With `COc1ccc(CNc2nccn(-c3ccc4c(c3)OCO4)c2=O)cc1OC` the RP-LC retention time was 724 s.
With `CCCCn1c(=O)c2ccccc2n(Cc2nc(-c3ccc(SC)cc3)no2)c1=O` the RP-LC retention time was 1250 s.
`COC(=O)c1ccc2c(=O)n(Cc3ccc(OC)cc3)c(N3CCC(C)CC3)nc2c1` gave an RP-LC retention time of 1330 s.
Work on `CCCS(=O)(=O)N1C[C@@H](COC)[C@H](c2ccncc2)C1` yielded an RP-LC retention time of 536 s.
For `COc1ccc(C2Cn3cnc(C(=O)N4CCC(C(=O)NC5CCCC5)CC4)c3CO2)cc1` (stereo not drawn), the RP-LC retention time was 705 s.
With `CCCn1cc(CCNC(=O)Nc2ccc3c(c2)OCCO3)c2cccnc21` the RP-LC retention time was 704 s.
Molecule `O=C(c1noc2ccc(S(=O)(=O)N3CCCc4ccccc43)cc12)N1CCCCC1` has an RP-LC retention time of 1090 s.
`COCCCNC(=O)c1ccc2nc(CCc3ccc(NC(C)=O)cc3)[nH]c2c1` showed an RP-LC retention time of 567 s.
`O=C(NCCNS(=O)(=O)CCOc1ccc(F)cc1)c1ccc(NC(=O)C2CC2)cc1` gave an RP-LC retention time of 710 s.
Work on `Cc1ccc(-c2noc(Cn3ccn(Cc4ccc(Cl)cc4)c(=O)c3=O)n2)cc1` yielded an RP-LC retention time of 951 s.
For `CCSc1ccccc1C(=O)NCC1(c2ccccc2OC)CCOCC1`, the RP-LC retention time was 843 s.
With `CC(C)(NC(=O)C1CCC1)c1nc2c(c(C(N)=O)n1)OCCO2` the RP-LC retention time was 586 s.
`CCOc1ccc(N2C=C(C(=O)N3CCOCC3)S(=O)(=O)c3ccc(F)cc32)cc1` showed an RP-LC retention time of 845 s.
Work on `CCOc1nccnc1NC1CCN(C(=O)Cc2cccs2)CC1` yielded an RP-LC retention time of 740 s.
`COc1ccc(C2NC(=O)NC(C)=C2C(=O)OCCc2ccccc2)c(OC)c1` (stereo not drawn) gave an RP-LC retention time of 957 s.
`CC(=O)Nc1nc(-c2ccc3c(c2)N(C)C(=O)C(C)O3)cs1` (stereo not drawn) gave an RP-LC retention time of 739 s.
Molecule `Cc1nn(CC(=O)NC(C)c2ccc3c(c2)OCCO3)c(=O)c2c(C)n(-c3ccccc3)nc12` (stereo not drawn) has an RP-LC retention time of 827 s.
For `Cc1cccc(NC(=O)N2CCCC(C)(C(=O)NCc3ccc(F)cc3)C2)c1C` (stereo not drawn), the RP-LC retention time was 929 s.
`COc1ccc(-c2ccc3nc(N4CCC(C(=O)N5CCOCC5)CC4)sc3n2)cc1` gave an RP-LC retention time of 822 s.
Work on `Cc1ccc(C(=O)N2CCN(c3nnc4ccc(Cl)cn34)CC2)cc1F` yielded an RP-LC retention time of 760 s.
For `Cc1ccc(CNC(=O)N2CCN(Cc3c(C)noc3C)CC2)cc1`, the RP-LC retention time was 611 s.
With `CCC(C)NC(=O)C1CCN(C(=O)Nc2ccc(NC(=O)Nc3ccccc3)cc2)CC1` (stereo not drawn) the RP-LC retention time was 748 s.
For `COc1ccc(-c2cc3n(n2)CCCN(C(=O)Nc2ccccc2F)C3)cc1OC`, the RP-LC retention time was 885 s.
`CCC(=O)Nc1c(C(=O)NC)oc2ccccc12` showed an RP-LC retention time of 712 s.
`Cc1noc2nc(CCC(=O)NCc3ccc(Cl)cc3)nc(N3CCOCC3)c12` gave an RP-LC retention time of 740 s.
Work on `O=C(NCCC1CCCCN1S(=O)(=O)c1ccccc1)C(=O)Nc1ccccc1Cl` (stereo not drawn) yielded an RP-LC retention time of 1060 s.
Molecule `COc1ccc(NC(=O)C2CCN(S(=O)(=O)c3cn(C(C)C)cn3)CC2)c(OC)c1` has an RP-LC retention time of 951 s.
In the case of `CCCCNC(=O)c1cc2n(n1)CC(C)(C(=O)NCc1ccc(F)cc1)N(C)C2=O` (stereo not drawn), the RP-LC retention time is reported as 725 s.
Molecule `Cc1cc(F)ccc1NC(=O)c1csc(-c2ccc(N3CCCC3)nc2)n1` has an RP-LC retention time of 768 s.
Work on `CCN(CC)S(=O)(=O)c1ccc2c(c1)CC(C(=O)N1CCN(c3ccccc3)CC1)N2C(C)=O` (stereo not drawn) yielded an RP-LC retention time of 879 s.
For `COc1ccccc1C1(CNC(=O)CSc2ccc(F)cc2)CCOCC1`, the RP-LC retention time was 853 s.
In the case of `CC(=O)Nc1ccc(NC(=O)C2CCCN(S(=O)(=O)c3cc(-c4noc(C)n4)cs3)C2)cc1` (stereo not drawn), the RP-LC retention time is reported as 744 s.
`CCc1ccc(C(=O)N2CCN(c3nnc4cccc(C)n34)CC2)cc1` showed an RP-LC retention time of 691 s.
Molecule `O=C(c1ccoc1)N1CCN(S(=O)(=O)c2cc(-c3noc(C4CCC4)n3)cs2)CC1` has an RP-LC retention time of 943 s.
For `Cc1cc(S(=O)(=O)NCC2CCCO2)cc([N+](=O)[O-])c1C` (stereo not drawn), the RP-LC retention time was 778 s.
Molecule `O=C(C1CC1)N1CCc2sc(S(=O)(=O)Nc3cccc(Cl)c3F)cc2C1` has an RP-LC retention time of 870 s.
`CC(C)Cn1c(CC2CCN(C(=O)c3n[nH]c4ccccc34)C2)nc2cccnc21` (stereo not drawn) gave an RP-LC retention time of 627 s.
With `CCS(=O)(=O)N1CCCCCC1c1ccccc1Cl` (stereo not drawn) the RP-LC retention time was 1090 s.
`O=C(Nc1ccc(OCc2nnc(-c3ccccc3)o2)cc1)c1ccccn1` gave an RP-LC retention time of 905 s.
In the case of `Cc1cccc(C(=O)NC2CCN(c3cc(-c4cccs4)[nH]n3)C2)c1` (stereo not drawn), the RP-LC retention time is reported as 741 s.
For `CCOc1ccccc1CN1CCc2nc(N3CCN(c4ncccn4)CC3)ncc2C1`, the RP-LC retention time was 672 s.
In the case of `O=C(Nc1cccc(Br)c1)N1CCc2nc(-c3ccccc3)ncc2C1`, the RP-LC retention time is reported as 1030 s.
`CCCCCn1c(=O)c2ccccc2n(Cc2nc(-c3ccc(SC)cc3)no2)c1=O` showed an RP-LC retention time of 1290 s.
With `CC1(C(=O)NCc2cccc(Br)c2)Oc2cccnc2NC1=O` (stereo not drawn) the RP-LC retention time was 730 s.
With `O=c1c2c([nH]c3ccc(Cl)cc13)CCN(Cc1ccc(F)cc1)C2` the RP-LC retention time was 620 s.
Molecule `O=C(CSCc1ccccc1)NCC1CCN(c2ncccn2)CC1` has an RP-LC retention time of 703 s.
`CCOC(=O)c1nc(N(C)c2cccc(C)c2)c2ccccc2n1` gave an RP-LC retention time of 982 s.
With `CCOc1ccc2nc(NC(=O)C3CCN(c4ccc(-n5cccn5)nn4)CC3)sc2c1` the RP-LC retention time was 780 s.
In the case of `COc1ccc(NC(=O)CCC2CCN(c3cc(NC4CC4)ncn3)CC2)c(C)c1`, the RP-LC retention time is reported as 575 s.
`CCc1ccc(CNC(=O)c2cc3n(n2)CC(C)(C(=O)NCCC(C)C)N(C)C3=O)cc1` (stereo not drawn) gave an RP-LC retention time of 860 s.
For `O=C(CN1C(=O)CCC1=O)N1CC(c2nc(-c3cnccn3)no2)C1`, the RP-LC retention time was 574 s.
Work on `Cc1ccc(C)c(N2CCN(c3ccc(-c4nc(-c5cccc(F)c5)no4)cn3)CC2)c1` yielded an RP-LC retention time of 602 s.
`O=C(NCCC1=CCCCC1)C1CCCN(c2ncc(-c3cccc(F)c3)cn2)C1` (stereo not drawn) gave an RP-LC retention time of 1220 s.
Molecule `O=C(NC1CCCCC1)N1CCC(N2C(=O)C3(CCCCC3)C2c2ccncc2)CC1` (stereo not drawn) has an RP-LC retention time of 659 s.
Molecule `CC1CCN(S(=O)(=O)c2cc(C(=O)N3CCN(c4ccc(Cl)cc4)CC3)n(C)c2)CC1` has an RP-LC retention time of 1100 s.
In the case of `COC[C@@H]1CN(C(=O)c2ccoc2C)C[C@H]1c1nc(C)no1`, the RP-LC retention time is reported as 539 s.
`O=C(CCNc1c(-c2cccc(F)c2)nc2cnccn12)NCc1ccc(Cl)cc1` gave an RP-LC retention time of 785 s.
Molecule `O=C(COc1ccccc1-c1nc(-c2ccccc2Cl)no1)NCc1ccco1` has an RP-LC retention time of 1060 s.
For `O=C(Cn1nc(N2CCOCC2)c2ccccc2c1=O)Nc1cccc(Br)c1`, the RP-LC retention time was 844 s.
Work on `CCC1CCCCN1c1cc(SCC(=O)Nc2ccc(N(C)C)cc2)ncn1` (stereo not drawn) yielded an RP-LC retention time of 709 s.
With `CCN1CCN(C(=O)c2cnn(-c3cc(-c4nc(C)no4)ccn3)c2C)CC1` the RP-LC retention time was 585 s.
For `CN(Cc1ccccc1)C(=O)CC(=O)Nc1ccc2nc3n(c(=O)c2c1)CCCCC3`, the RP-LC retention time was 702 s.
For `Cn1nc(-c2ccccc2F)c2cc(C(=O)N3CCN(c4ccccn4)CC3)sc21`, the RP-LC retention time was 654 s.
Work on `CCC(C(=O)NC(C)C(=O)N1CCCCC1)n1c2ccccc2c2cnn(C)c(=O)c21` (stereo not drawn) yielded an RP-LC retention time of 670 s.
